Data as given in article PMC10082216 (Nature Communications, 2023).
Where two headings read alike, the source gives them in different places.

Tests used:
[1] = system: P.falciparum Dd2; set-up: method as in previously published reports (Table S1 legend); details: 72 h; results in previous assays; ref previously published reports (Table S1 legend); read-out: 72-h Dd2-SybrGreen PBFS assay IC50; cited from earlier work
[2] = system: mature stage V gametocytes (NF54 strain); test: High-throughput screening: killing effect by MitoTracker staining, primary screening at 1.11 µM and dose-response analysis; assay type: cell-based, Plasmodium falciparum; details: stage V gametocytes NF54, 24 h, dose-response analysis, N/A = not active in dose-response analysis, read-out: Killing IC50
Experimental: (§1) Screening was conducted as previously described. Briefly, mature stage V gametocytes (NF54 strain) were cultured in vitro, then exposed to the explored compounds and filtered thereafter through layers of microspheres (microsphiltration)[25],[28]. Stiffening activity was determined by comparing gametocytemia up and downstream from the microsphere layers after filtration of drug-exposed gametocytes in 384-well plates using a vacuum manifold. Gametocytemia was assessed using DNA (Sybr Green) and erythrocyte membrane (CellMask) staining. Killing effect was assessed by MitoTracker staining. We screened two small libraries, specifically the Pathogen Box from the Medicine for Malaria Venture and the Kinase Inhibitors Box from GSK (400 and 350 compounds, respectively, Fig. 1A, B), and furthermore the larger ReFrame repurposing library (12,805 compounds, Fig. 1C).
(§2) The Pathogen Box library (400 compounds, provided by MMV-Medicine for Malaria Ventures, Geneva, Switzerland), the Kinase Inhibitors Box library (350 compounds, provided by GSK-Glaxo SmithKline DDW Unit, Tres Cantos, Spain), and the ReFrame library (12,805 compounds provided by the California Institute for Biomedical Research-Calibr, La Jolla, CA, USA) were used according to the providers’ instructions. DMSO-solubilized compounds (10 mM stock concentration) were loaded in 384-well plates (Seahorse, cat. no. 201035−100). Two columns were left empty for the controls. For each compound, 5 nL were pre-spotted in a single well to reach a final concentration of 1.11 μM. The final volume for each well was 45 μl. Controls were prepared as follows: 22.5 nL of DMSO were loaded in 16 wells as negative controls (0.05% final concentration); 22.5 nL of NITD609 (provided by MMV, Geneva, Switzerland) 1 mM were loaded in 8 wells (0.5 μM final concentration), 17 nL of Calyculin A (Sigma, cat. no. C5552) […] were loaded in 6 wells (75 nM final concentration) and 225 nL of Gentian Violet (MolPort, cat. no. 002-133-551) 10 mM were loaded in the remaining 2 wells (50 μM final concentration). Plates were prepared in triplicate for the Pathogen Box and sextuplicate for the Kinase Inhibitors Box.
(§3) Plasmodium falciparum NF54 strain parasites (used for screening campaign) were cultured at 4% hematocrit in RBCs from informed blood donors (blood group A) as previously described. Parasites were taken from the -80 °C freezer, then rapidly melt for 1 minute in a 37 °C water bath. A saline solution was gently added to avoid the lysis. Firstly, NaCl dissolved at 12% in distilled water (1/5 of the volume measured in the cryovial) and then NaCl dissolved at 1.6% (9 times the cryovial’s volume). After that, fresh RBCs were added to allow parasites re-growth. Infected RBCs were kept in RPMI medium (Sigma-Aldrich, cat. no. R4130), supplemented with 10% of decomplemented human serum, hypoxanthine 50 mg/l (Sigma-Aldrich, cat. no. H9636). Biobank of Castilla y Leon and Centro de Transfusiones de Madrid as providers of human red blood cell concentrates. The production of gametocytes was induced from a 0.5% ring-stage parasitemia (day 0). Medium was changed daily to induce gametocytes differentiation, as previously described. At day 17, gametocytes were concentrated using a density gradient medium (NycoPrep 1.077, Progen cat. no. 1114550)[27]. Parasitemia was adjusted by FACS (SYBR-Green and MitoTracker double staining, 3–5% targeted). Hematocrit was adjusted to 0.5% by adding fresh RBCs and controlled by manual counting in a Neubauer chamber (Celeromics, cat. no. 717810). Finally, the gametocyte suspension was poured (45 μL/well) into the compound-containing 384-well microplate, then incubated 24 hours both for the screening campaign and the dose-response analysis. Both asexual and sexual stages were cultivated in RPMI 1640 supplemented with 25 mM HEPES, 50 mg/L hypoxanthine, 50 μg/mL gentami-cin, 10% pooled heat-inactivated human serum (A^+).

[3] = cited from earlier work
[4] = system: mature stage V gametocytes (NF54 strain); test: microbe, parasite or virus in culture; assay type: cell-based, Plasmodium falciparum
Experimental: as §1, §2, §3

[5] = Hit scoring on safety in human subjects and pharmacokinetics; details: for Score (PK): peak plasma concentration vs IC50
From the text: Hits from the ReFrame library were further selected based on safety, preferably oral administration (high score if oral), and potential availability for widespread use.

[6] = system: human subjects; details: cited from earlier work; for AE (%) / SAE (%): healthy volunteers
[7] = system: HepG2; details: cited from earlier work
[8] = system: HEK293T; details: cited from earlier work
[9] = Plasmodium falciparum, NF54, 24 h
[10] = Plasmodium falciparum, NF54, 24 h, read-out: Stiffening IC50 (retention)
[11] = stage V gametocytes NF54, 24 h, dose-response analysis, N/A = not active in dose-response analysis, read-out: Stiffening IC50 (retention)
[12] = read-out: Cellular cytotoxicity assay IC50, HepG2, 72 h, second value of cell, ref previously published reports (Table S1 legend)
[13] = read-out: Cellular cytotoxicity assay IC50, HEK293T, 72 h, first value of cell, ref previously published reports (Table S1 legend)
[14] = 100 mg single dose in combination with sofosbuvir 400 mg, ref CTR20160602
[15] = healthy volunteers, 100 mg single dose in combination with sofosbuvir 400 mg, ref CTR20160602
[16] = 90 mg single dose in combination with sofosbuvir 400 mg, ref CTR20160149
[17] = healthy volunteers, 90 mg single dose in combination with sofosbuvir 400 mg, ref CTR20160149
[18] = 50 mg single dose, ref NCT01937975
[19] = healthy volunteers, 50 mg single dose, ref NCT01937975

SMILES: CS(=O)(=O)c1ccc(-c2cnc(N)c(-c3ccc(C(F)(F)F)nc3)c2)cc1 [MMV-390048]
- IC50 [1]: 229 nM
- IC50 [2, 9]: 3860 nM
- IC50 [2]: 3900 nM
- serum peak concentration ([3]; humans, highest 120 mg dose, ref 37 (McCarthy et al 2020)): 2.8 µM
- IC50 [4, 10]: 3500 nM
- IC50 ([4]; Plasmodium falciparum, NF54, read-out: IC50 (killing and stiffening, given as range)): 3500 to 3900 nM
- Score (safety) [5]: 3
- Score (PK) [5]: 2 (Peak plasma concentration between 1/3 IC50 and IC50 (Score = 2))

SMILES: CCN(CC)Cc1ccc2cc(COC(=O)Nc3ccc(C(=O)NO)cc3)ccc2c1.Cl.O [Givinostat hydrochloride]
- patients with significant adverse events ([6]; human, in vivo): more than 15%
- IC50 [2]: 2100 nM
- IC50 [4, 11]: 1400 nM
- Score (safety) [5]: 0
- Score (PK) [5]: 0

SMILES: COC(=O)N[C@H](C(=O)N1CCC[C@H]1C(=O)Nc1ccc([C@@H]2CC[C@@H](c3ccc(NC(=O)[C@@H]4CCCN4C(=O)[C@@H](NC(=O)OC)C(C)C)cc3)N2c2ccc(C(C)(C)C)cc2)cc1)C(C)C [Ombitasvir]
- t1/2 ([3]; human, in vivo): 21 to 25 h

SMILES: CC(C)[C@H](C(=O)Nc1ccc(C(=O)NO)cc1)c1ccccc1 [AR-42]
- rate of life-threatening adverse events ([6]; human, in vivo): > 25%
- IC50 [2]: 1500 nM
- IC50 [4, 11]: 1900 nM
- Score (safety) [5]: 0
- Score (PK) [5]: 0

SMILES: COc1ccc(-c2nc(N3CCOCC3)c3sc(CN(C)c4ncc(C(=O)NO)cn4)cc3n2)cn1 [CUDC-907]
- IC50 [7, 12]: 3 nM
- IC50 [1]: 18 nM
- rate of life-threatening adverse events ([6]; ref NCT02674750 (CUDC-907), NCT02795819 (AR-42)): > 25%
- IC50 [2, 9]: 3320 nM
- IC50 [8, 13]: 30 nM
- IC50 [4, 10]: 1860 nM
- Score (safety) [5]: 0
- Score (PK) [5]: 0

SMILES: C[C@@H]1O[C@@H](O[C@@H]2C=C3CC[C@@H]4[C@H](CC[C@]5(C)[C@@H](c6ccc(=O)oc6)CC[C@]45O)[C@@]3(C)CC2)[C@H](O)[C@H](O)[C@H]1O [Proscillaridin]
- IC50 [7, 12]: 14 nM
- IC50 [1]: 9950 nM
- IC50 ([2]; Plasmodium falciparum): 300 nM
- IC50 [8, 13]: 9 nM
- IC50 [4, 10]: 80 nM
- Score (safety) ([5]; human): 0
- Score (PK) [5]: 0

SMILES: COC[C@H]1C[C@@H](c2ncc(-c3ccc4c(c3)COc3cc5c(ccc6nc([C@@H]7CC[C@H](C)N7C(=O)[C@@H](NC(=O)OC)C(C)C)[nH]c65)cc3-4)[nH]2)N(C(=O)[C@H](NC(=O)OC)c2ccccc2)C1 [Velpatasvir]
- AE (%) [6, 14]: 42.9%
- SAE (%) [6, 14]: 0%
- Cmax [3, 15]: 584 nM
- t1/2 [3, 15]: 16.8 h

SMILES: COC(=O)N[C@H](C(=O)N1CCC[C@H]1c1nc(-c2ccc(-c3ccc(-c4c[nH]c([C@@H]5CCCN5C(=O)[C@@H](NC(=O)OC)C(C)C)n4)cc3)cc2)c[nH]1)C(C)C [Daclatasvir]
- Cmax ([3]; human, in vivo, 30 mg): 945 nM
- t1/2 ([3]; human, in vivo, 30 mg): 12.4 h

SMILES: CN(C)Cc1c(C(=O)NCCOc2ccc(C(=O)NO)cc2)oc2ccccc12 [Abexinostat]
- patients with significant adverse events ([6]; human, in vivo): more than 15%
- IC50 [2, 9]: 2000 nM
- IC50 [4, 10]: 640 nM
- Score (safety) [5]: 0
- Score (PK) [5]: 0

SMILES: O=C(CC1NCCCC1O)Cn1cnc2cc(Br)c(Cl)cc2c1=O (centres unmarked) [Halofuginone]
- IC50 [7]: 36 nM
- IC50 [1]: 1 nM
- IC50 ([2]; Plasmodium falciparum): 240 nM
- IC50 [8]: 89 nM
- IC50 [4, 10]: 4300 nM
- Score (safety) ([5]; human): 3

SMILES: N=C(N)c1ccc(C=C2c3ccccc3-c3ccccc32)cc1 [Paranyline]
- IC50 [7, 12]: 650 nM
- IC50 [1]: 1870 nM
- IC50 [2, 9]: 1900 nM
- IC50 [8, 13]: 1420 nM
- IC50 [4, 10]: 3200 nM
- Score (safety) [5]: 0
- Score (PK) [5]: 0

SMILES: COC(=O)N[C@H](C(=O)N1CC2(CC2)C[C@H]1c1ncc(-c2ccc3c(c2)C(F)(F)c2cc(-c4ccc5nc([C@@H]6[C@H]7CC[C@H](C7)N6C(=O)[C@@H](NC(=O)OC)C(C)C)[nH]c5c4)ccc2-3)[nH]1)C(C)C [Ledipasvir]
- safety in pregnant women [6]: can be safely administered to pregnant women
- AE (%) [6, 16]: 42.9%
- SAE (%) [6, 16]: 0%
- Cmax [3, 17]: 362 nM
- t1/2 [3, 17]: 39.9 h

SMILES: COC(=O)N[C@H](C(=O)N1CCC[C@H]1c1nc(-c2ccc3c(c2)O[C@@H](c2ccccc2)n2c-3cc3cc(-c4c[nH]c([C@@H]5CCCN5C(=O)[C@@H](NC(=O)OC)C(C)C)n4)ccc32)c[nH]1)C(C)C [Elbasvir]
- AE (%) [6, 18]: 37.5%
- SAE (%) [6, 18]: 0%
- Cmax [3, 19]: 163 nM
- t1/2 [3, 19]: 25 h

SMILES: CCCCCCCCN=c1ccn(CCCCCCCC)cc1 [Pirtenidine]
- IC50 [7]: 285 nM
- IC50 [1]: 615 nM
- IC50 [2]: 2780 nM
- IC50 [8]: 1480 nM
- IC50 [4, 11]: 3650 nM
- Score (safety) [5]: 0
- Score (PK) [5]: 0
